Test results reported in article PMC8949129, “Unique Phenanthrenes from Juncus ensifolius and Their Antiproliferative and Synergistic Effects with the Conventional Anticancer Agent Doxorubicin against Human Cancer Cell Lines” (Pharmaceutics, 2022).
Read-outs that look alike come from different tables or passages of the source.

Key:
[1] = test system: COLO 205 doxorubicin-sensitive colonic adenocarcinoma cells; assay: Antiproliferative MTT assay, COLO 205; assay type: cell-based, human; details: for IC50: MTT, 72 h, four parallel measurements, read-out: IC50 (µM) ± SD COLO 205; for SI MRC-5/COLO 205: selectivity index: IC50 in non-tumour cells / IC50 in cancer cells
Procedure: (§1) The human colon adenocarcinoma cells (COLO 205 sensitive and the resistant COLO 320/MDR-LRP expressing P-gp), namely, ATCC-CCL-220.1 (COLO 320) and CCL-222 (COLO 205) were cultured in RPMI 1640 medium supplemented with 10% heat-inactivated fetal bovine serum, 2 mM L-glutamine, 1 mM Na pyruvate, and 100 mM HEPES. HeLa (ATCC® CCL-2™) human cervix carcinoma cells, and MRC-5 (ATCC® CCL-171) human embryonal lung fibroblast cells were cultured in Eagle’s minimal essential medium (EMEM, containing 4.5 g/L glucose) supplemented with a non-essential amino acid mixture, a selection of vitamins, and 10% heat-inactivated fetal bovine serum. The cell lines were detached with 0.25% trypsin and 0.02% EDTA for 5 min at 37 °C.
(§2) In the study, human colonic adenocarcinoma cell lines (doxorubicin-sensitive COLO 205 and multidrug resistant COLO 320 colonic adenocarcinoma cells), HeLa human cervix carcinoma cells and the MRC-5 non-cancerous human embryonic lung fibroblast cell line were used to determine the effect of the compounds on cell growth. The effects of increasing concentrations of compounds on cell growth were tested in 96-well flat-bottomed microtiter plates. […] The compounds were diluted in a volume of 100 μL of the medium. The adherent cells were cultured in 96-well flat-bottomed microtiter plates using EMEM supplemented with 10% heat-inactivated fetal bovine serum. The density of the cells was adjusted to 6 × 10^3 cells in 100 µL per well, the cells were seeded prior to the assay for 24 h at 37 °C, with 5% CO2, and then the medium was removed from the plates, and fresh medium (100 µL per well) was added to the cells. The effects of increasing concentrations of compounds on cell proliferation were tested in 96-well flat-bottomed microtiter plates. The compounds were diluted in the appropriate medium; the dilutions of compounds were performed in separate plates and then added to the cells. The starting concentration of the compounds was 100 µM, and two-fold serial dilution was performed (concentration range: 100–0.19 µM). The culture plates were incubated at 37 °C for 72 h; at the end of the incubation period, 20 µL of MTT (thiazolyl blue tetrazolium bromide, Sigma) solution (from a stock solution of 5 mg/mL) was added to each well. After incubation at 37 °C for 4 h, 100 µL of sodium dodecyl sulfate (SDS) (Sigma) solution (10% in 0.01 M HCI) was added to each well, and the plates were further incubated at 37 °C overnight. Cell growth was determined by measuring the optical density (OD) at 540/630 nm, with a Multiscan EX ELISA reader (Thermo Labsystems, Cheshire, WA, USA). Inhibition of cell growth (expressed as IC50: inhibitory concentration that reduces the growth of the cells exposed to the tested compounds by 50%) was determined from the sigmoid curve where 100 − ((ODsample − ODmedium control)/(ODcell control − ODmedium control)) × 100 was plotted against the logarithm of the compound concentrations. Curves were fitted by Prism5 software (GraphPad Software Inc., San Diego, CA, USA) from four parallel experiments for each cell line. Results are expressed in terms of IC50, defined as the inhibitory dose that reduces the proliferation of the cells exposed to the tested compounds by 50% [20].

[2] = test system: HeLa human cervix carcinoma cells; assay: Antiproliferative MTT assay, HeLa; assay type: cell-based; details: for IC50: MTT, 72 h, four parallel measurements, read-out: IC50 (µM) ± SD HeLa; for SI MRC-5/HeLa: selectivity index: IC50 in non-tumour cells / IC50 in cancer cells
Procedure: as §1, §2

[3] = test system: COLO 320/MDR-LRP multidrug resistant colonic adenocarcinoma cells expressing P-gp; assay: Antiproliferative MTT assay, COLO 320; details: for IC50: read-out: IC50 (µM) ± SD COLO 320; for SI MRC-5/COLO 320: selectivity index: IC50 in non-tumour cells / IC50 in cancer cells
Procedure: as §1, §2

HeLa cells [4] = assay: Drug combination assay with doxorubicin (MTT, CompuSyn); assay type: cell-based, human; set-up: key to CI (combination index): CI <1 synergy, ~1 additivity, >1 antagonism; details: for Interaction: interaction type with doxorubicin; for CI (combination index): with doxorubicin, 72 h, average over drug ratios at IC50
Procedure: The HeLa cell line was used to perform this assay. Doxorubicin (2 mg/mL, Teva Pharmaceuticals, Budapest, Hungary) was serially diluted in the horizontal direction, starting with 8.6 µM. The resistance modifier was subsequently diluted in the vertical direction, and the starting concentration was determined based on the IC50. The dilutions of doxorubicin were made in a horizontal direction in 100 µL, and the dilutions of the resistance modifiers occurred vertically in the microtiter plate in a 50 µL volume. The compounds and doxorubicin were diluted separately. […] Then, diluted compounds with a volume of 50 μL were added to each well to reach a final volume of 200 μL. The plates were incubated for 72 h at 37 °C in a CO2 incubator, and at the end of the incubation period, the cell growth was determined by the MTT staining method, as described earlier. Drug interactions were evaluated using CompuSyn software. Each dose-response curve (for individual agents as well as combinations) was fit to a linear model using the median effect equation in order to obtain the median effect value (corresponding to the IC50) and slope (m). The goodness-of-fit was assessed using the linear correlation coefficient, r, and only data from analysis with r > 0.90 are presented. The extent of the interaction between drugs was expressed using the combination index in which a CI value close to 1 indicates additivity, while CI < 1 is defined as synergy and CI > 1 as antagonism.

[5] = test system: MRC-5 human embryonal lung fibroblast cells; assay: Antiproliferative MTT assay, MRC-5 non-tumor cells; assay type: cell-based; details: four parallel measurements, read-out: IC50 (µM) ± SD MRC-5
Procedure: as §1, §2

[6] = test system: superoxide anion generation; set-up: method as in PMID 27940118; details: anti-inflammatory activity ref 16; cited from earlier work
human neutrophils = test system: human neutrophils; set-up: method as in PMID 27940118; details: fMLP/CB activation ref 16, read-out: IC50 elastase release; cited from earlier work
HeLa cells [7] = test system: HeLa cells; set-up: method as in PMID 33064469; details: HeLa ref 15; read-out: IC50 antiproliferative activity against HeLa cells; cited from earlier work
[8] = MTT, 72 h, four parallel measurements

IC50 ([1]; Homo sapiens, COLO 205, 72 h)	IC50 ([2]; Homo sapiens, HeLa)	IC50 ([3]; Homo sapiens, COLO 320, 72 h)	IC50 [1]	IC50 [2]	Compound	SI MRC-5/COLO 205 [1]	SI MRC-5/HeLa [2]	SI MRC-5/COLO 320 [3]	Interaction (HeLa cells [4])	CI (combination index) (HeLa cells [4])	IC50 ([5]; Homo sapiens, MRC5, 72 h)	IC50 [3, 8]	IC50 ([5]; 72 h)	IC50 [6]	IC50 (human neutrophils)	IC50 (HeLa cells [7])
32.9 ± 0.59 µM	58.1 ± 1.2 µM	52.4 ± 0.77 µM	–	–	C=Cc1cc(C)cc2c1-c1ccc(O)c(C)c1CC2 [Compound 14, 2-hydroxy-1,7-dimethyl-5-vinyl-9,10-dihydrophenanthrene]	1.85	1.05	1.16	synergism (0.3 < CI < 0.7: synergism)	0.579	60.89 ± 0.25 µM	–	–	–	–	–
–	–	–	34.4 ± 0.57 µM	6.65 ± 0.1 µM	C#Cc1c(C)c(O)cc2c1CCc1c-2ccc(O)c1C [Compound 16, juncatrin B]	0.76	3.91	0.80	synergism (0.3 < CI < 0.7: synergism)	0.682	–	32.5 ± 0.75 µM	26 ± 0.85 µM	–	–	–
> 100 µM	> 100 µM	> 100 µM	–	–	O=Cc1ccc(O)cc1 [Compound 18, 4-hydroxybenzaldehyde]	–	–	–	–	–	> 100 µM	–	–	–	–	–
> 100 µM	> 100 µM	> 100 µM	–	–	O=c1cc(-c2ccc(O)c(O)c2)oc2cc(O)cc(O)c12 [Compound 19, luteolin]	–	–	–	–	–	> 100 µM	–	–	–	–	–
1.36 ± 0.36 µM	0.04 ± 0.004 µM	0.22 ± 0.004 µM	–	–	COc1cccc2c1C(=O)c1c(O)c3c(c(O)c1C2=O)C[C@@](O)(C(=O)CO)C[C@@H]3O[C@H]1C[C@H](N)[C@H](O)[C@H](C)O1 [doxorubicin]	–	–	–	–	–	0.53 ± 0.06 µM	–	–	–	–	–
–	–	–	–	–	C=Cc1c(C)c(O)cc2c1-c1ccc(O)c(C)c1CC2 [juncusol, reference compound]	–	–	–	–	–	–	–	–	3.1 µM	–	–
–	–	–	37.1 ± 0.57 µM	6.67 ± 0.03 µM	juncuenin B [Compound 15]	0.97	5.37	1.17	slight synergism (0.7 < CI < 0.9: moderate to slight synergism)	0.864	–	30.5 ± 0.93 µM	35.9 ± 1.23 µM	4.9 µM	5.5 µM	2.9 µM
–	–	–	56.7 ± 0.75 µM	10.56 ± 0.09 µM	sylvaticin A [Compound 17]	>1.76	>9.47	>1.73	strong synergism (0.1 < CI < 0.3: strong synergism)	0.279	–	57.7 ± 0.92 µM	> 100 µM	–	–	–

Compound	IC50 ([1]; Homo sapiens, COLO 205, 72 h)	IC50 ([2]; Homo sapiens, HeLa)	IC50 ([3]; Homo sapiens, COLO 320, 72 h)	IC50 [1]	IC50 [2]	SI MRC-5/COLO 205 [1]	SI MRC-5/HeLa [2]	SI MRC-5/COLO 320 [3]	Interaction (HeLa cells [4])	CI (combination index) (HeLa cells [4])	IC50 ([5]; Homo sapiens, MRC5, 72 h)	IC50 [3, 8]	IC50 ([5]; 72 h)	IC50 [6]	IC50 (human neutrophils)	IC50 (HeLa cells [7])
C=Cc1c(C)cc(O)c2c1CCc1c-2cc(-c2c(C)c(C=C)c3c(c2O)-c2ccc(O)c(C)c2CC3)c(O)c1C [Compound 12, Ensifolin L]	26.9 ± 1.19 µM	30.22 ± 0.21 µM	37.4 ± 2.13 µM	–	–	1.87	1.67	1.35	strong synergism (0.1 < CI < 0.3: strong synergism)	0.120	50.4 ± 1.3 µM	–	–	–	–	–
N.N.[Cl][Pt][Cl] [cisplatin, reference compound]	–	–	–	41.7 ± 1.62 µM	3.62 ± 0.16 µM	–	–	–	–	–	–	–	2.36 ± 0.33 µM	–	–	–
